Columns and labels:
DTH footpad swelling = test: DTH induced by SRBC-TH cells; type: in vivo, C57 BL/6 mice; details: doses of the order of 5 mg/kg s.c., footpad thickness after 24 hours
Method: 7. DTH Induced by SRBC-TH Cells
50 μl of the SRBC cell suspension (diluted 1:1 v/v with PBS) is injected s.c. into the left hind footpad (to measure non specific increase in footpad swelling due to the injection procedure). Right and left hind footpad thickness is measured 24 hours later.
The percent increase in thickness of the right footpad over the left footpad (z) is calculated. Thickness of right footpad=x. thickness of left footpad=y; % specific increase=z

[1] = system: spleen cells from Balb/c mice co-incubated with spleen cells from CBA mice; test: Two-way MLR (murine mixed lymphocyte reaction); type: cell-based; details: Mus musculus, 96 h, 4 days co-incubation, labelled precursor incorporation into DNA, read-out: IC50, proliferative response in two-way MLR
Method: 1. Proliferative Response Of Lymphocvtes to Allogenic Stimulation
Two-way MLR (Murine Mixed Lymphocyte Reaction)
Spleen cells (2×10^5) from Balb/c mice (female, 8-10 weeks) are co-incubated for 4 days with 2×10^5 spleen cells from CBA mice (female, 8-10 weeks). The allogenic cells induce a proliferative response in the responder spleen cell population which is measured by labelled precursor incorporation into the DNA.

[2] = Cytotoxic and cytostatic activity in vitro using the THP1 cell line (MTT); type: cell-based; details: human, thp1 cells; after 24 h incubation, IFNγ 100 U/ml and LPS 5 μg/ml; read-out: IC50, cytotoxicity THP1 (MTT)
Method: 3. Cytotoxic and Cytostatic Activity in Vitro Using the THP1 Cell Line
Cytotoxicity is determined using the human monocytic cell line THP1 (5×10^4 cells/well) which are incubated in the presence of IFNγ (100 U/ml)and LPS (5 μg/ml) plus test compound (up to 10 μM) for 24 to 72 h at 37° C. Living cells are quantified using the colourimetric read-out MTT which measures mitochondrial dehydrogenase enzymatic activity in living cells (Mossman 1983). Macrolides of the invention, e.g. compounds of formula IX and their pharmaceutically acceptable salts, e.g. Sanglifehrins A, B, C and D, have IC50 s of about 1000-5000 nM after 24 h incubation in this assay.

[3] = system: Tumour Necrosis Factor (TNF) α release by peripheral blood mononuclear cells; test: TNF release by human peripheral blood mononuclear cells; type: cell-based; details: PBMC, IFNγ 100 U/ml and LPS 5 μg/ml, 3 h incubation, ELISA
Method: 4. TNF Release by Human Peripheral Blood Mononuclear Cells
Mononuclear cells are prepared from the peripheral blood of healthy volunteers using Ficoll-Hypaque density separation according to the method of Hansell et al. (1991). Cells (10^5 cells/well in 200 μl RPMI 10% FCS by volume) are incubated with serial dilutions of the test compounds for 30 min at 37° C. prior to the addition of stimulus. Interferon γ (100 U/ml) and LPS (5 μg/ml) are used as stimuli to induce Tumour Necrosis Factor (TNF) α release by peripheral blood mononuclear cells. After 3 h incubation, the cells are centrifuged (1200 rpm for 10 min) and the supernatants are collected. The amount of TNF present in the cell supernatants is determined using a commercially available enzyme-linked immunosorbent assay kit.

heart allograft [4] = test: Mouse heart allotransplantation (BALB/c to C3H); type: in vivo; details: doses of the order of 30 mg/kg/day, s.c. Alzet osmotic minipumps
Method: (§1) 8. Rat/Mouse Heart Allotransplantation
(§2) The in vivo efficacy of macrolides of the invention is assessed in rat and mouse heart allotransplantation using Alzet osmotic minipumps for s.c. administration.

[5] = system: LPS-stimulated Murine B-cells; test: LPS-stimulated murine B-cell proliferation; type: cell-based, CBA mice; details: Mus musculus, 48 hours with 50 μg/ml LPS, labelled precursor incorporation into DNA, read-out: IC50, inhibition of B-cell proliferation
Method: LPS-stimulated Murine B-cells
Spleen cells (2×10^5) from CBA mice are incubated for 48 hours with 50 μg/ml LPS plus test compound. Proliferation is measured by labelled precursor incorporation into DNA.

FK binding protein = FK binding protein (Homo sapiens, UniProt P62942); test: FK binding protein binding (standard test); details: standard tests
Chain of FK binding protein (P62942 whole entry): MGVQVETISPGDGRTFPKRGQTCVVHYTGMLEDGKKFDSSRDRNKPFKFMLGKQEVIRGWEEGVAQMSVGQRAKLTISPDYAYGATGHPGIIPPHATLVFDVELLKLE

heart allograft [6] = test: Rat heart allotransplantation (DA to Lewis); type: in vivo; details: in combination with suboptimal doses of cyclosporin A
Method: as §1, §2

calcineurin = test: Calcineurin activity (standard test); type: biochemical; details: standard tests
[7] = system: Localised Graft-versus-Host (GvH) reaction; test: Localised graft-versus-host (GvH) reaction in the rat; type: in vivo; details: dose of about 1 mg/kg s.c., 4 consecutive days, lymph node weight on day 7
Method: 6. Localised Graft-versus-Host (GvH) Reaction in the Rat
Spleen cells (1×10^7) from 6 week old female Wistar/Furth (WF) rats are injected subcutaneously on day 0 into the left hind-paw of female (F344×WF)F1 rats weighing about 100 g. Animals are treated for 4 consecutive days and the popliteal lymph nodes are removed and weighed on day 7. The difference in weight between the two lymph nodes is taken as the parameter for evaluating the reaction.

[8] = target: human recombinant cyclophilin A (Homo sapiens, UniProt P62937); test: Cyclophilin binding assay (competitive ELISA / competitive binding test); details: competition with coated BSA-cyclosporin A
Chain of human recombinant cyclophilin A (P62937 whole entry): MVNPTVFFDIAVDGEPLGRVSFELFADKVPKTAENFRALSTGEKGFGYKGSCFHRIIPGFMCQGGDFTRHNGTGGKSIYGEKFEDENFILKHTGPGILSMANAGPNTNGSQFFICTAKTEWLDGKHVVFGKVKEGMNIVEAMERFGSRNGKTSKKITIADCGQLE
Text: 5. Cyclophilin Binding Assay
A suitable cyclophilin binding assay is the competitive ELISA test described by Quesniaux in Eur. J. Immunol. 1987 17 1359-1365.

SMILES | reduction of swelling of the DTH mouse (DTH footpad swelling) | IC50 [1] [nM] | CC50 at 24 h [2] [nM] | IC50 [3] [nM] | graft survival (in words), mouse heart allotransplantation (heart allograft [4]) | IC50 [5] [nM] | FK binding protein binding activity (FK binding protein) | graft survival (in words), rat heart allotransplantation (heart allograft [6]) | inhibition of calcineurin activity (calcineurin) | inhibition of the GvH reaction [7] | IC50 [8] [nM]
CC[C@H]1C[C@H](C)[C@@]2(NC1=O)O[C@@H](C[C@H](O)[C@@H](C)CC/C=C/C=C(\C)[C@@H]1C/C=C/C=C/[C@H](O)[C@H](C)[C@@H](O)[C@@H](CCC(C)=O)C(=O)N[C@@H](C(C)C)C(=O)N[C@@H](Cc3cccc(O)c3)C(=O)N3CCC[C@H](N3)C(=O)O1)[C@H](C)[C@H](O)[C@@H]2C [Sanglifehrin A] | up to 50% | 30 to 200 | 1000 to 5000 | 200 to 1000 | prolong graft survival | 40000 to 100000 | do not have FK binding protein binding activity | prolonged graft survival |  |  | 
CCC1CC(C)C2(NC1=O)OC(CC(O)C(C)CCC=CC=C(C)C1CC=CC=CC(O)C(C)C(O)C(CCC(C)=O)C(=O)NC(C(C)C)C(=O)NC(Cc3cccc(O)c3)C(=O)N3CCCC(N3)C(=O)O1)C(C)C=C2C (stereo not drawn) [Sanglifehrin B] | up to 50% | 30 to 200 | 1000 to 5000 | 200 to 1000 | prolong graft survival | 40000 to 100000 | do not have FK binding protein binding activity | prolonged graft survival | do not inhibit calcineurin activity | up to 30% | 10 to 100
CCC1CC(C)C2(NC1=O)OC(CC(O)C(C)CCC=CC=C(C)C1CC=CC=CC(O)C(C)C3OC(C)(OC)CCC3C(=O)NC(C(C)C)C(=O)NC(Cc3cccc(O)c3)C(=O)N3CCCC(N3)C(=O)O1)C(C)C(O)C2C (stereo not drawn) [Sanglifehrin C] | up to 50% | 30 to 200 | 1000 to 5000 | 200 to 1000 | prolong graft survival | 40000 to 100000 | do not have FK binding protein binding activity | prolonged graft survival | do not inhibit calcineurin activity | up to 30% | 10 to 100
